Source: patent US8835462B2, “Macrocyclic picolinamides as fungicides” (Dow AgroSciences LLC, priority 2012, dated 2014)

Key:
[1] = test system: Phakopsora pachyrhizi; test: Asian soybean rust (PHAKPA) fungicidal activity; format: in vivo; details: 25 ppm; for Disease Control PHAKPA 1 DP: 1 Day Protectant; for Disease Control PHAKPA 2 DC: 2 Day Curative
Method: Evaluation of Fungicidal Activity: Asian Soybean Rust (Phakopsora Pachyrhizi; Bayer Code […]) Technical grades of materials were dissolved in acetone, which were then mixed with nine volumes of water containing 0.011% Tween 20. The fungicide solutions were applied onto soybean seedlings using an automated booth sprayer to run-off. All sprayed plants were allowed to air dry prior to further handling. Soybean plants (variety Williams 82) were grown in soil-less Metro mix, with one plant per pot. Two weeks old seedlings were used for testing. Plants were inoculated either 2 days prior to or 1 day after fungicide treatments. Plants were incubated for 24 h in a dark dew room at 22° C. and 100% RH then transferred to a growth room at 23° C. for disease to develop. Disease severity was assessed on the sprayed leaves.

[2] = test system: Cochliobolus sativus; test: Spot blotch of barley (COCHSA) fungicidal activity; format: in vivo; details: 100 ppm, 1 Day Protectant
Method: Technical grades of materials were dissolved in acetone, which were then mixed with nine volumes of water containing 110 ppm Triton X-100. The fungicide solutions were applied onto wheat seedlings using an automated booth sprayer to run-off. All sprayed plants were allowed to air dry prior to further handling. Wheat plants (variety Yuma) were grown from seed in a greenhouse in 50% mineral soil/50% soil-less Metro mix until the first leaf was fully emerged, with 7-10 seedlings per pot. These plants were inoculated with an aqueous spore suspension of Septoria tritici either prior to or after fungicide treatments. After inoculation the plants were kept in 100% relative humidity (one day in a dark dew chamber followed by two to three days in a lighted dew chamber at 20° C.) to permit spores to germinate and infect the leaf. The plants were then transferred to a greenhouse set at 20° C. for disease to develop. When disease symptoms were fully expressed on the 1st leaves of untreated plants, infection levels were assessed on a scale of 0 to 100 percent disease severity. Percent disease control was calculated using the ratio of disease severity on treated plants relative to untreated plants. Evaluation of Fungicidal Activity: Spot Blotch of Barley (Cochliobolus Sativus; Bayer Code COCHSA) Barley seedlings (variety Harrington) were propagated in soil-less Metro mix, with each pot having 8 to 12 plants, and used for testing when first leaf was fully emerged. Test plants were inoculated with a spore suspension of Cochliobolus sativus 24 hr after fungicide treatments. After inoculation the plants were placed in a dark dew room with 100% RH and temperature of 22° C. for 48 hr. The plants were then kept in a greenhouse set at 24° C. until disease fully developed. Fungicide formulation, application and disease assessment followed the procedures as described in the Example A.

[3] = test system: Rhyncosporium secalis; test: Barley scald (RHYNSE) fungicidal activity; format: in vivo; details: 100 ppm, 1 Day Protectant
Method: Technical grades of materials were dissolved in acetone, which were then mixed with nine volumes of water containing 110 ppm Triton X-100. The fungicide solutions were applied onto wheat seedlings using an automated booth sprayer to run-off. All sprayed plants were allowed to air dry prior to further handling. Wheat plants (variety Yuma) were grown from seed in a greenhouse in 50% mineral soil/50% soil-less Metro mix until the first leaf was fully emerged, with 7-10 seedlings per pot. These plants were inoculated with an aqueous spore suspension of Septoria tritici either prior to or after fungicide treatments. After inoculation the plants were kept in 100% relative humidity (one day in a dark dew chamber followed by two to three days in a lighted dew chamber at 20° C.) to permit spores to germinate and infect the leaf. The plants were then transferred to a greenhouse set at 20° C. for disease to develop. When disease symptoms were fully expressed on the 1st leaves of untreated plants, infection levels were assessed on a scale of 0 to 100 percent disease severity. Percent disease control was calculated using the ratio of disease severity on treated plants relative to untreated plants. Evaluation of Fungicidal Activity: Barley Scald (Rhyncosporium Secalis; Bayer Code […]) Barley seedlings (variety Harrington) were propagated in soil-less Metro mix, with each pot having 8 to 12 plants, and used in the test when first leaf was fully emerged. Test plants were inoculated by an aqueous spore suspension of Rhyncosporium secalis 24 hr after fungicide treatments. After inoculation the plants were kept in dew room at 20° C. with 100% relative humidity for 48 hr. The plants were then transferred to a greenhouse set at 20° C. for disease to develop. Fungicide formulation, application and disease assessment on the sprayed leaves followed the procedures as described in the Example A.

Compound | Disease Control PHAKPA 1 DP [1] | Disease Control PHAKPA 2 DC [1] | melting point | Disease Control COCHSA 1DP [2] | Disease Control RHYNSE 1DP [3]
COc1ccnc(C(=O)N[C@H]2COC[C@H](Cc3ccccc3)[C@@H](OCC(C)C)[C@H](C)OC2=O)c1O [Compound 2, N-((3S,7S,8R,9S)-7-benzyl-8-isobutoxy-9-methyl-2-oxo-1,5-dioxonan-3-yl)-3-hydroxy-4-methoxypicolinamide] | A (80-100) | A (80-100) | 126 to 128 °C | – | –
COc1ccnc(C(=O)N[C@H]2COC[C@H](Cc3ccccc3)[C@@H](OCC(C)C)[C@H](C)OC2=O)c1OCOC(=O)C(C)C [Compound 3] | A (80-100) | A (80-100) | 54 to 58 °C | A (80-100) | –
COc1ccnc(C(=O)N[C@H]2COC[C@H](Cc3ccccc3)[C@@H](OCC(C)C)[C@H](C)OC2=O)c1OCOC(=O)C(C)(C)C [Compound 7] | A (80-100) | A (80-100) | – | B (More than 0-Less than 80) | –
COc1ccnc(C(=O)N[C@H]2COC[C@H](Cc3ccccc3)[C@@H](OCC(C)C)[C@H](C)OC2=O)c1OCOC(C)=O [Compound 8, (2-((3S,7S,8R,9S)-7-benzyl-8-isobutoxy-9-methyl-2-oxo-1,5-dioxonan-3-ylcarbamoyl)-4-methoxypyridin-3-yloxy)methyl acetate] | A (80-100) | A (80-100) | – | B (More than 0-Less than 80) | A (80-100)
COc1ccnc(C(=O)N[C@H]2COC[C@H](Cc3ccccc3)[C@@H](OCC(C)C)[C@H](C)OC2=O)c1OC(C)=O [Compound 9, 2-(((3S,7S,8R,9S)-7-benzyl-8-isobutoxy-9-methyl-2-oxo-1,5-dioxonan-3-yl)carbamoyl)-4-methoxypyridin-3-yl acetate] | A (80-100) | A (80-100) | – | B (More than 0-Less than 80) | –
COc1ccnc(C(=O)N[C@H]2COC[C@H](Cc3ccccc3)[C@@H](OCC(C)C)[C@H](C)OC2=O)c1OC(=O)OC(C)C [Compound 10, 2-(((3S,7S,8R,9S)-7-benzyl-8-isobutoxy-9-methyl-2-oxo-1,5-dioxonan-3-yl)carbamoyl)-4-methoxypyridin-3-yl isopropyl carbonate] | A (80-100) | A (80-100) | – | B (More than 0-Less than 80) | –
COc1ccnc(C(=O)N[C@H]2COC[C@H](Cc3ccccc3)[C@@H](OC3CCCC3)[C@H](C)OC2=O)c1OC(C)=O [Compound 107] | – | – | – | – | A (80-100)
COc1ccnc(C(=O)N[C@H]2COC[C@H](Cc3ccccc3)[C@@H](OC3CCCC3)[C@H](C)OC2=O)c1OCOC(=O)C(C)C [Compound 108] | A (80-100) | A (80-100) | – | – | A (80-100)
